Results from paper PMC11859636, “Design, Synthesis, and Mechanistic Anticancer Evaluation of New Pyrimidine-Tethered Compounds” (Pharmaceuticals, 2025).
“And” between values parts separate entries of the source, which are not always exact repeats. Identical values can stand only once. Like-named read-outs stand apart in the source and are kept apart here.

Legend:
[1] = tested on: MCF-7 cells; assay: MTT assay for cytotoxicity, MCF-7 cells; assay type: cell-based, human; conditions: for anti-breast cancer activity (cytotoxicity): MCF-7 cells, 100 µM; for IC50: Homo sapiens, MCF7, MTT, 72 h
Protocol: (§1) Dulbecco’s modified Eagle’s medium (DMEM) (Wako Pure Chemical Industries, Osaka, Japan) containing 10% fetal bovine serum (FBS) (Equitech-Bio, Kerrville, TX, USA) was used for the culture of A549 and MCF-7 human cancer cells, while RPMI 1640 (Wako Pure Chemical Industries) containing 10% FBS was used for the culture of Jurkat cells, derived from human leukemia. On the other hand, PBMCs (Precision Bioservices, Frederick, MD, USA) were incubated in RPMI 1640 supplemented with 10% human serum AB (HS) (Gemini, Woodland, CA, USA). All media also incorporated 89 μg/mL of streptomycin (Meiji Seika Pharma, Tokyo, Japan), and cells were maintained at 37 °C in a 95% air and 5% CO2 humidified chamber. The microtiter tissue culture plates (24-well and 96-well) (Iwaki, Asahi Glass Co., Chiba, Japan) were used for cancer cells (4 × 10^4 cells/mL) and PBMCs (5 × 10^5 cells/mL), respectively. Prior to drug treatment, all of these cells were incubated for 72 h. The optimal cell density for cytotoxicity testing was established in preliminary experiments. […] The final concentration of DMSO in the culture medium was adjusted to 1% [61, 62, 63].
(§2) The cellular reduction in MTT (Dojindo Molecular Technologies, Kumamoto, Japan) was measured as described in the literature with minor modifications. […] MTT was then added at a final concentration 0.275 mg/mL and incubated for a further 4 h at 37 °C. The medium was removed and 100 μL DMSO was added to each well to dissolve the formazan crystals. The dissolved crystals were diluted (1:10) with DMSO, and 100 μL of the solution was transferred to a 96-well microtiter plate (Iwaki, Asahi Glass Co.). Absorbance was measured at 570 nm using an Infinitive M1000 microplate spectrophotometer (Tecan, Groding, Austria). Each concentration was tested in triplicate, and the IC50 values were determined as the drug concentrations that reduced absorbance to 50% of the control values.

[2] = tested on: A549 cells; conditions: cited from earlier work
[3] = tested on: EGFR; conditions: cited from earlier work; for IC50: read-out: EGFR inhibition IC50
[4] = tested on: A549 cells; assay: MTT assay for cytotoxicity, A549 cells; assay type: cell-based, human; conditions: for IC50: Homo sapiens, A549, MTT, 72 h; for anti-NSCLC activity (cytotoxicity): A549 cells, 100 µM
Protocol: as §1, §2

[5] = tested on: Jurkat cells; assay: MTT assay for cytotoxicity, Jurkat cells; assay type: cell-based, human; conditions: for IC50: Homo sapiens, Jurkat, MTT, 72 h
Protocol: as §1, §2

[6] = tested on: PBMCs; assay: MTT assay for cytotoxicity, PBMCs (healthy); assay type: cell-based; conditions: PBMC, 72 h, healthy cells
Protocol: as §1
The cellular reduction in MTT (Dojindo Molecular Technologies, Kumamoto, Japan) was measured as described in the literature with minor modifications. […] Absorbance was measured at 570 nm using an Infinitive M1000 microplate spectrophotometer (Tecan, Groding, Austria). […]

[7] = tested on: MCF-7 cells; conditions: cited from earlier work
[8] = tested on: A549 cells; assay: Annexin V/ethidium homodimer III staining for apoptosis, A549 cells; assay type: cell-based, human; conditions: IC50 concentration, 24 h
Protocol: (§3) Compound B-4 at an IC50 concentration was administered to A549 and MCF-7 cells for 24 h. After detachment from the plate with 0.05% trypsin and washing twice with 1× binding buffer, the cells were incubated for 20 min at r.t. in the dark with a staining solution bearing 50 μL 1× binding buffer, 4 μL FTIC annexin V solution, 4 μL ethidium homodimer III solution, and 4 μL Hoechst 33342 solution. The cells were washed with 1× binding buffer, fixed with 2% paraformaldehyde, washed with PBS, and analyzed by a Biorevo Fluorescence BZ-9000 (Keyence, Osaka, Japan) integrated fluorescence microscope.

[9] = tested on: MCF-7 cells; assay: Annexin V/ethidium homodimer III staining for apoptosis, MCF-7 cells; assay type: cell-based, human; conditions: IC50 concentration, 24 h
Protocol: as §3

[10] = target: T1, EGFR kinase (Homo sapiens, UniProt P00533); assay: EGFR inhibition assay (EGFR Kinase Enzyme System, ADP-Glo); assay type: biochemical
T1 construct: EGFR kinase (human, recombinant; amino acids 695–end); purchased Promega Corporation V3831
T1 sequence (P00533 695-1210 limits assumed): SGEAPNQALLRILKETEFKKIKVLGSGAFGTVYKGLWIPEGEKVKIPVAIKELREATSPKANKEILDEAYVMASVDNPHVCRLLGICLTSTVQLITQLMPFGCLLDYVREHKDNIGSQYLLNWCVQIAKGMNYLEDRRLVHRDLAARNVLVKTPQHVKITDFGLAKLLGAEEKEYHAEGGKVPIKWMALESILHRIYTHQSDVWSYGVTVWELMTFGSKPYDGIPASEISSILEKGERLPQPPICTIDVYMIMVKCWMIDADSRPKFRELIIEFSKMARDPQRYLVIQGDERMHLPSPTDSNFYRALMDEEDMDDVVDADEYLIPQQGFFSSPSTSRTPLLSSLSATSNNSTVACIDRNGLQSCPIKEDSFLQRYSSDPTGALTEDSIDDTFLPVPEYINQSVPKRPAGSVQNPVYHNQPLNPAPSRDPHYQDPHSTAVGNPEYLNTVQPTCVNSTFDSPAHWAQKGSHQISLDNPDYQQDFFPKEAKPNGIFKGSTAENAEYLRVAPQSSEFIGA
Protocol: The kinase profiling assay protocol (EGFR Kinase Enzyme System, V3831) was performed following the manufacturer’s instructions (Promega Corporation, Madison, WI, USA) with minor modifications. As per the protocol, 95 μL of 2.5× kinase buffer and 15 μL of 100 μM ATP solution were used for the dilution of the EGFR kinase (human, recombinant; amino acids 695–end) and its substrate (4:1 Glu, Tyr). Kinase reactions were performed in a 384-well plate in the presence of 2 μL of kinase working stock, 2 μL of ATP/substrate working stock, and 1 μL of the test compound solution ([…]) or 5% DMSO solution. After incubating for 2 h at r.t., kinase activity was assessed using the ADP-Glo Kinase Assay (Promega Corporation, Madison, WI, USA) following the manufacturer’s instructions. Specifically, 5 μL of ADP-Glo Reagent was added to each well and incubated for 40 min, followed by the addition of 10 μL of Kinase Detection Reagent and further incubation for 30 min at room temperature. Luminescence was measured using the Infinite M1000 microplate reader (Tecan, Grödig, Austria) with an integration time of 0.5–1 s to evaluate the kinase inhibitory effects of the compounds in a dose-dependent manner.

[11] = thiazolyl–pyrazolines, read-out: IC50 A549 cells
[12] = triazoloquinoxaline–chalcone derivatives
[13] = quinoline/chalcone hybrids with 1,2,4-triazole

For `COc1ccc(C2=NN(c3nc(-c4ccc(Cl)cc4)cs3)C(c3cnc(-c4ccc(Cl)cc4)nc3)C2)cc1OC` (centres unmarked) [BH-4, 2-(5-(2-(4-Chlorophenyl)pyrimidin-5-yl)-3-(3,4-dimethoxyphenyl)-4,5-dihydro-1H-pyrazol-1-yl)-4-(4-(chloro)phenyl)thiazole], the “anti-breast cancer activity (cytotoxicity)” value (“anti-breast cancer activity” below) [1] was 38%.

In the case of `COc1ccc(C2CC(c3ccc(Cl)cc3Cl)=NN2c2nc(C)c(C(=O)Nc3ccccc3)s2)cc1OC` (centres unmarked) [Compound 10d], the IC50 [2, 11] is given as 2.92 µM and the IC50 ([3]; thiazolyl–pyrazolines) is given as 0.0325 µM.

In the case of `CS(=O)(=O)CCNCc1ccc(-c2ccc3ncnc(Nc4ccc(OCc5cccc(F)c5)c(Cl)c4)c3c2)o1` [Lapatinib], the IC50 [4] is reported as 18.2 ± 3.25 µM, the IC50 [1] is reported as 9.71 ± 1.12 µM and the IC50 [5] is reported as 1.43 ± 0.35 µM. For the same compound, the IC50 [6] was 12.7 ± 2.08 µM.

With `COc1ccc(C2=NN(c3nc(-c4ccc(Br)cc4)cs3)C(c3cnc(-c4ccc(Cl)cc4)nc3)C2)cc1OC` (centres unmarked) [BH-5, 2-(5-(2-(4-Chlorophenyl)pyrimidin-5-yl)-3-(3,4-dimethoxyphenyl)-4,5-dihydro-1H-pyrazol-1-yl)-4-(4-(bromo)phenyl)thiazole] the “anti-NSCLC activity (cytotoxicity)” value [4] was 37% and the “anti-breast cancer activity” value [1] was 39%.

For `CCc1nnc2c(Nc3ccc(C(=O)/C=C/c4ccc(OC)cc4)cc3)nc3ccccc3n12` [Compound 7e], the IC50 [7, 12] is listed as 8.23 ± 0.25 µM and the IC50 [3, 12] is listed as 0.083 ± 0.04 µM.

In the case of `N#Cc1ccc(-c2csc(N3N=C(c4ccc(N5CCOCC5)cc4)CC3c3ccc(Cl)cc3)n2)cc1` (centres unmarked) [Compound 3f], the IC50 [2, 11] is given as 10.8 µM, the IC50 ([7]; thiazolyl–pyrazolines) is given as 8.05 µM and the IC50 ([3]; thiazolyl–pyrazolines) is given as 4.34 µM.

In the case of `COc1ccc(C2=NN(C(N)=S)C(c3cnc(-c4ccc(Cl)cc4)nc3)C2)cc1OC` (centres unmarked) [B-9, 5-(2-(4-chlorophenyl)pyrimidin-5-yl)-3-(3,4-dimethoxyphenyl)-4,5-dihydro-1H-pyrazole-1-carbothioamide], the “anti-NSCLC activity (cytotoxicity)” value [4] is reported as 43% and the “anti-breast cancer activity” value [1] is reported as 33%.

For `COc1ccc2nc(Cl)c(C3CC(c4ccc(C)cc4)=NN3c3nc(-c4ccc(F)cc4)cs3)cc2c1` (centres unmarked) [Compound 6c], the IC50 ([7]; thiazolyl–pyrazolines) is listed as 0.227 µM and the IC50 ([3]; thiazolyl–pyrazolines) is listed as 0.0318 µM.

In the case of `COc1ccc(C(=O)/C=C/c2cnc(-c3ccc(Cl)cc3)nc2)cc1OC` [B-4, (E)-3-(2-(4-chlorophenyl)pyrimidin-5-yl)-1-(3,4-dimethoxyphenyl)prop-2-en-1-one], the “anti-NSCLC activity (cytotoxicity)” value [4] is reported as 70%, the IC50 [4] is reported as 20.5 ± 2.71 µM and the IC50 [1] is reported as 6.7 ± 1.02 µM. The “anti-breast cancer activity” value [1] was 70%, the IC50 [5] was 1.5 ± 0.4 µM and the “SI (Selectivity Index)” value ([5]; IC50 for PBMC/IC50 for Jurkat cell line) was 45.93. For the same compound, the IC50 [6] was 68.9 ± 10.3 µM, the “cells that underwent apoptosis” value [8] was 11.9% and the “cells that underwent apoptosis” value [9] was 10.2%. The EGFR inhibition ([10]; 1 μM) was “weak inhibition” and the inhibition at 10 µM ([10]; 10 μM) was 46%.

In the case of `C=CCn1c(SCC(=O)Nc2ccc(C(=O)/C=C/c3ccc(Cl)cc3)cc2)nnc1-c1cc(-c2ccccc2)nc2ccccc12` [Compound 7b], the IC50 ([2]; quinoline/chalcone hybrids with 1,2,4-triazole, read-out: IC50 A549 cells) is given as 3.6 ± 0.05 µM, the IC50 [7, 13] is given as 3.3 ± 0.08 µM and the IC50 [3, 13] is given as 1.3 ± 1.2 µM.

In the case of `COc1ccc(C2CC(c3ccc(OC)c(OC)c3)=NN2c2nc(-c3ccccc3)cs2)cc1` (centres unmarked) [Compound 6e], the IC50 ([7]; thiazolyl–pyrazolines) is given as 7.21 µM and the IC50 ([3]; thiazolyl–pyrazolines) is given as 0.009 µM.

In the case of `Clc1ccc(C2CC(c3ccc4ccccc4c3)=NN2c2nc(-c3ccc(Br)cc3)cs2)cc1` (centres unmarked) [BTT-5], the IC50 ([2]; naphthalene-linked pyrazoline–thiazole hybrids, read-out: anti-NSCLC IC50 (A549 cells)) is given as 9.51 µM and the EGFR inhibition ([3]; 10 µM concentration, 10 µM) is given as 58% and 58.32%.

For `CCOC(=O)c1sc(N2N=C(c3ccc(Cl)cc3Cl)CC2c2ccc(OC)cc2)nc1C` (centres unmarked) [Compound 10b], the IC50 [2, 11] is listed as 4.22 µM and the IC50 ([3]; thiazolyl–pyrazolines) is listed as 0.0407 µM.
